Results reported in ChEMBL document CHEMBL1201862, “PubChem BioAssay data set” (2004).
One block for each compound: values may come before it. Activity calls are given as the source filed them.

Assays:
[1] = target: Multidrug resistance protein CDR2 (Candida albicans (strain SC5314 / ATCC MYA-2876) (Yeast), UniProt P78595); test: inhibition of Nile Red efflux via Candida CDR2 – S. cerevisiae AD1-8u, singleplex, Cherry Pick1 hits, dose response (AID 588604); type: functional
[2] = reduction of Shn3 3'UTR-driven luciferase in osteoblasts – cell-based, Clone20 osteoblasts, firefly luciferase, cherry-picked, dose response (AID 624132); type: functional;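 note: firefly luciferase luminescence from reporter carrying the Shn3 3'UTR in osteoblasts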
[3] = target: Sphingosine 1-phosphate receptor 1 (Homo sapiens, UniProt P21453); type: functional;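 note: Tango beta-arrestin reporter U2OS cells stimulated with S1P near its EC80; inhibitor potency meaning antagonism of receptor activation by the natural agonist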
Integrin alpha-4 = Integrin alpha-4 (Homo sapiens, UniProt P13612); test: allosteric modulators of alpha4 integrin VLA-4 – cell-based, LIBS antibody binding, flow cytometry, SAR follow-up (AID 488791); type: functional
Caspase-6 = target: T1, Caspase-6 (Homo sapiens, UniProt P55212); test: inhibition of CASP6 peptide cleavage – biochemical, VEID-R110 fluorescence, cherry-pick, dose response (AID 720632)
T1 sequence (P55212 whole entry): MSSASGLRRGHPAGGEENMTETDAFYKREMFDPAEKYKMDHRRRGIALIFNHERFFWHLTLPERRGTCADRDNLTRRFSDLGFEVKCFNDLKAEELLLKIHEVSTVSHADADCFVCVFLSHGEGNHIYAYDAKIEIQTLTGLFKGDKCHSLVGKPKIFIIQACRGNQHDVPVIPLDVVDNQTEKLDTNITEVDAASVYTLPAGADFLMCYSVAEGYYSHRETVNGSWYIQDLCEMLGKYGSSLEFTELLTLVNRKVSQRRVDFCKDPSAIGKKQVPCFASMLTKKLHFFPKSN

[4] = target: T2, Alkaline phosphatase, tissue-nonspecific isozyme (Homo sapiens, UniProt P05186); test: inhibition of tissue-nonspecific alkaline phosphatase – biochemical, dose response (AID 488882); type: functional
T2 sequence (P05186 whole entry): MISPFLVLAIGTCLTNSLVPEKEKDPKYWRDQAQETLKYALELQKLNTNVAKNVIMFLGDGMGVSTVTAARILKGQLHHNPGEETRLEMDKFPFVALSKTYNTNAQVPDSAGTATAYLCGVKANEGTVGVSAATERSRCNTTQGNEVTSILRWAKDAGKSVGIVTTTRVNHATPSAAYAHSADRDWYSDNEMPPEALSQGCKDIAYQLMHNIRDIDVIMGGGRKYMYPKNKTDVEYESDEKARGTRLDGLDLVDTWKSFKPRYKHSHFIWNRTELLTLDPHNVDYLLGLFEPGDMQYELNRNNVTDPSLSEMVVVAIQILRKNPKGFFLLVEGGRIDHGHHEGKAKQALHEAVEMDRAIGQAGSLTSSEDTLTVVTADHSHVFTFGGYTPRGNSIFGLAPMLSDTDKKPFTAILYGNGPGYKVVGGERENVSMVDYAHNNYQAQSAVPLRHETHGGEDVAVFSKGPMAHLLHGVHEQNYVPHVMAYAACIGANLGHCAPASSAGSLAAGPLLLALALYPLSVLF

[5] = target: Protein kinase C theta type (Homo sapiens, UniProt Q04759); test: Navigating the Kinome. Panel member name: PRKCQ; type: functional
[6] = target: Tyrosine-protein kinase Srms (Homo sapiens, UniProt Q9H3Y6); type: functional;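 note: SRMS measured as one member of a kinome-wide kinase profiling panel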
[7] = target: Mast/stem cell growth factor receptor Kit (Homo sapiens, UniProt P10721); type: functional;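 note: KIT entry within a kinase panel assay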
[8] = target: Tyrosine-protein kinase receptor TYRO3 (Homo sapiens, UniProt Q06418); type: functional;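 note: TYRO3 value obtained as one member of a kinome-wide profiling panel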
[9] = target: Cell division cycle 7-related protein kinase (Homo sapiens, UniProt O00311); type: functional;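 note: value obtained from a kinome-wide kinase panel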
[10] = target: Vascular endothelial growth factor receptor 2 (Homo sapiens, UniProt P35968); type: functional
[11] = target: Tyrosine-protein kinase Fyn (Homo sapiens, UniProt P06241); type: functional
[12] = target: Testis-specific serine/threonine-protein kinase 1 (Homo sapiens, UniProt Q9BXA7); type: functional
[13] = target: Cyclin-dependent kinase 9 (Homo sapiens, UniProt P50750); type: functional;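 note: value from the CDK9 entry of a kinome-spanning kinase panel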
[14] = target: Serine/threonine-protein kinase 17A (Homo sapiens, UniProt Q9UEE5); type: functional
[15] = target: High affinity nerve growth factor receptor (Homo sapiens, UniProt P04629); type: functional;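 note: NTRK1 tested as one member of a kinome-wide profiling panel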
Insulin receptor = Insulin receptor (Homo sapiens, UniProt P06213); type: functional;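 note: insulin receptor kinase tested as one member of a kinome-wide kinase panel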
[16] = target: Tyrosine-protein kinase ABL1 (Homo sapiens, UniProt P00519); type: functional
[17] = target: Calcium/calmodulin-dependent protein kinase type II subunit delta (Homo sapiens, UniProt Q13557); type: functional
[18] = target: cAMP-dependent protein kinase catalytic subunit PRKX (Homo sapiens, UniProt P51817); type: functional
[19] = target: Serine/threonine-protein kinase BRSK1 (Homo sapiens, UniProt Q8TDC3); type: functional;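 note: measured within a kinome-wide kinase panel, with the target listed as KIAA1811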
[20] = target: Serine/threonine-protein kinase MRCK alpha (Homo sapiens, UniProt Q5VT25); type: functional
[21] = target: ALK tyrosine kinase receptor (Homo sapiens, UniProt Q9UM73); type: functional;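 note: ALK tested as one member of a kinase panel screen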
Troponin, cardiac muscle = Troponin, cardiac muscle (Homo sapiens, UniProt P19429+P45379+P63316); test: compounds desensitizing RTF to calcium – biochemical, fluorescence, cardiac regulated thin filaments, triplicate IC50, dose response (AID 504742); type: protein-complex assay

Sequence of Integrin alpha-4 (P13612 whole entry): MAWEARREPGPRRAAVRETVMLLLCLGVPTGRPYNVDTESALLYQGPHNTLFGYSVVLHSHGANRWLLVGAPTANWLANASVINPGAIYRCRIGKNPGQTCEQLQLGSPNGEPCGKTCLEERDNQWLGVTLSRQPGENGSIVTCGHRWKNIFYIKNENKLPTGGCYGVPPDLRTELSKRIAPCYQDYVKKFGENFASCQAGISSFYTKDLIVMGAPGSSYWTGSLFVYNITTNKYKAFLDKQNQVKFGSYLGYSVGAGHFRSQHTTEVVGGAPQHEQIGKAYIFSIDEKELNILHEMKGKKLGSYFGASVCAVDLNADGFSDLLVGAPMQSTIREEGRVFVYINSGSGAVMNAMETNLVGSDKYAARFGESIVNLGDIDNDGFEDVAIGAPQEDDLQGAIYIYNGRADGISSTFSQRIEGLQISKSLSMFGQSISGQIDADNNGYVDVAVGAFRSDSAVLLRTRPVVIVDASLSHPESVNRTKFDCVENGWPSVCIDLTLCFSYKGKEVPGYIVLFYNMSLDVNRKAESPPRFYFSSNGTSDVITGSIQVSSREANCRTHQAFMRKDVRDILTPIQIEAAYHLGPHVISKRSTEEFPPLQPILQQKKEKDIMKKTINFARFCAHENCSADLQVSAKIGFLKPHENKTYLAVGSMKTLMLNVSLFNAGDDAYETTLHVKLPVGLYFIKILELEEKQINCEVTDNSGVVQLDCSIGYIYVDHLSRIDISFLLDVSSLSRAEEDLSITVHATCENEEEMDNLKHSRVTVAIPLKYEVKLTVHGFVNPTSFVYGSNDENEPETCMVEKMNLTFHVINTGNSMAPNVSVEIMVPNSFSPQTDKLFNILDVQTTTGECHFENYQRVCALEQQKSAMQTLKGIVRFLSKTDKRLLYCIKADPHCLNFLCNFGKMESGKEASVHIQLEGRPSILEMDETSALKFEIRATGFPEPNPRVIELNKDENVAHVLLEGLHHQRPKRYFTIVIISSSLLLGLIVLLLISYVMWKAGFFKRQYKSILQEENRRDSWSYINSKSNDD
Sequence of High affinity nerve growth factor receptor (P04629 whole entry): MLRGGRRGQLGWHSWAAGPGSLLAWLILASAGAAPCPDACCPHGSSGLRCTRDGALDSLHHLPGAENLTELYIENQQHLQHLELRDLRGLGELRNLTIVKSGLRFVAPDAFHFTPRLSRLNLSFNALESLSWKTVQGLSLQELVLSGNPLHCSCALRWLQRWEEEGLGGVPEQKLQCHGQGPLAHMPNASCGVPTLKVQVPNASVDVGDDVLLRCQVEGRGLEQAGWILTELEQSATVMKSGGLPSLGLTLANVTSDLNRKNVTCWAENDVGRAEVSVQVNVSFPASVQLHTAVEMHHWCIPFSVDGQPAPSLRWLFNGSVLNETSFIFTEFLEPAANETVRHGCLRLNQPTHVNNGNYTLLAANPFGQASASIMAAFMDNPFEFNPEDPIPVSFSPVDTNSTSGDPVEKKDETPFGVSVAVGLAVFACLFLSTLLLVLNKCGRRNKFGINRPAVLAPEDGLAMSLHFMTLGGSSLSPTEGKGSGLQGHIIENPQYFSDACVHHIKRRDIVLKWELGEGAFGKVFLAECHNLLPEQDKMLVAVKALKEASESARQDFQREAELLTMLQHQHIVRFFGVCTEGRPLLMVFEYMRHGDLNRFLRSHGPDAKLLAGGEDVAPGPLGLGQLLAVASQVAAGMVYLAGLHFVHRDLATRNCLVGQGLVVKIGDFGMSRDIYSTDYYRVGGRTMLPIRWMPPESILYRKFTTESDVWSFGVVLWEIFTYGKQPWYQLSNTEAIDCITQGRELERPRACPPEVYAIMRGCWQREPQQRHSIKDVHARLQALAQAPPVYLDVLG
Sequence of Serine/threonine-protein kinase BRSK1 (Q8TDC3 whole entry): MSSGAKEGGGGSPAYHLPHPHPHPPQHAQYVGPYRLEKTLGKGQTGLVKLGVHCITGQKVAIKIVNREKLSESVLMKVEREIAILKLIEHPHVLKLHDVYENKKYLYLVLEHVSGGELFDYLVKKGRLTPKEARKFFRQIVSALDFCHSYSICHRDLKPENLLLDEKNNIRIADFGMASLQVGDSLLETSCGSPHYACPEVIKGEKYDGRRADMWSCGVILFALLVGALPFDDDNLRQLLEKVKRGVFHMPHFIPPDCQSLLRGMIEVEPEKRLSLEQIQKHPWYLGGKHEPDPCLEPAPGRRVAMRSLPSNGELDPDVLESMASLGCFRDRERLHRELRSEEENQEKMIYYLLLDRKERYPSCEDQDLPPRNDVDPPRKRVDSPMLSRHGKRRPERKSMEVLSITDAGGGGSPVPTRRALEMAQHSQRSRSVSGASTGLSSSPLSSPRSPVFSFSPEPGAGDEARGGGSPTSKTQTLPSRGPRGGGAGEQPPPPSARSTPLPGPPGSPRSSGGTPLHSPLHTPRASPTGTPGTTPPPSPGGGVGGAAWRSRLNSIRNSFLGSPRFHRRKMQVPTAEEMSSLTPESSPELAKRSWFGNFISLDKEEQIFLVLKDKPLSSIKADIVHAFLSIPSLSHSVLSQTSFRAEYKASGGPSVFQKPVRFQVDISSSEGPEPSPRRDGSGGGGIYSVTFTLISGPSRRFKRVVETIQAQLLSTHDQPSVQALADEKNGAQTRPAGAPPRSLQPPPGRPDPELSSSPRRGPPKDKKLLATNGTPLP
Sequence of Mast/stem cell growth factor receptor Kit (P10721 whole entry): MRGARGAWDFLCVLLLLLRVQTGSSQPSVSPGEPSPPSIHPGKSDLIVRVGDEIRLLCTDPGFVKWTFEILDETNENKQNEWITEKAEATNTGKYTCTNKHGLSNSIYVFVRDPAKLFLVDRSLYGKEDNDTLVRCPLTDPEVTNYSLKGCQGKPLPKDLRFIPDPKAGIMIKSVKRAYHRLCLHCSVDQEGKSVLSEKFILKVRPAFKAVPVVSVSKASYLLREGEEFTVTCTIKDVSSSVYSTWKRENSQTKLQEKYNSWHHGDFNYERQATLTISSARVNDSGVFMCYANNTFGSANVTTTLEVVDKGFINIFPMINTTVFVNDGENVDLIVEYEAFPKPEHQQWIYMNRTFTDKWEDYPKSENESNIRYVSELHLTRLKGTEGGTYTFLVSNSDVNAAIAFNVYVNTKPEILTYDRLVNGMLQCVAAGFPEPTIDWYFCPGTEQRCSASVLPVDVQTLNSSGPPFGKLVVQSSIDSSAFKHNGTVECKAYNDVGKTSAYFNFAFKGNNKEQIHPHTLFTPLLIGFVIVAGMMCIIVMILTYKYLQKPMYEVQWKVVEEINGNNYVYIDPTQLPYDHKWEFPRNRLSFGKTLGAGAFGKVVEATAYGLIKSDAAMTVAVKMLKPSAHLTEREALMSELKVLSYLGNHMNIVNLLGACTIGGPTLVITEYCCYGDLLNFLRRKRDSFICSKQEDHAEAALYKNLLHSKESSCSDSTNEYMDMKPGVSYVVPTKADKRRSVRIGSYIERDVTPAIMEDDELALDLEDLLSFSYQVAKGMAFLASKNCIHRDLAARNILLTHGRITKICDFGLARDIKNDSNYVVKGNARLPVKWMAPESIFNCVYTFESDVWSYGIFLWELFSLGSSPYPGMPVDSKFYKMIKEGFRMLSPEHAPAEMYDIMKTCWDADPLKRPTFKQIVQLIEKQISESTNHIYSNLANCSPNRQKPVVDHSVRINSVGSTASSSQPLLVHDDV
Sequence of Testis-specific serine/threonine-protein kinase 1 (Q9BXA7 whole entry): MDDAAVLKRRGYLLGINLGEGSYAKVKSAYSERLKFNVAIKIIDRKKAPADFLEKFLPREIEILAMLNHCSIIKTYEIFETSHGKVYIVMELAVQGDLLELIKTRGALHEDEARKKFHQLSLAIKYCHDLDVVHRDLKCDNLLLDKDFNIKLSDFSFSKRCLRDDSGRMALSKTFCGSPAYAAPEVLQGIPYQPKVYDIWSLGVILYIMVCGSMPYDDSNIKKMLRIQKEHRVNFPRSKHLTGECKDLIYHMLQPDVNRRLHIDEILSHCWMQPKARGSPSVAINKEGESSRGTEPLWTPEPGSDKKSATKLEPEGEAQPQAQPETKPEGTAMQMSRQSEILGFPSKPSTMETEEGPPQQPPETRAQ
Sequence of cAMP-dependent protein kinase catalytic subunit PRKX (P51817 whole entry): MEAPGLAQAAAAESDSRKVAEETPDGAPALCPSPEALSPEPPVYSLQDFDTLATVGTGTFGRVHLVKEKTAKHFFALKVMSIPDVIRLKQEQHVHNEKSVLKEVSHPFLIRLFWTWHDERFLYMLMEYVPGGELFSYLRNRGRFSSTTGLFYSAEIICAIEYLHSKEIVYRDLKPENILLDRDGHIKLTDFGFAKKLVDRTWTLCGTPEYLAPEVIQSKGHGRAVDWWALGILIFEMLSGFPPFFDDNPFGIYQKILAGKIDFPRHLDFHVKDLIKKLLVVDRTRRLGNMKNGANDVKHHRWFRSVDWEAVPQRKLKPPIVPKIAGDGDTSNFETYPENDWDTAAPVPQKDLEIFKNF
Sequence of Cyclin-dependent kinase 9 (P50750 whole entry): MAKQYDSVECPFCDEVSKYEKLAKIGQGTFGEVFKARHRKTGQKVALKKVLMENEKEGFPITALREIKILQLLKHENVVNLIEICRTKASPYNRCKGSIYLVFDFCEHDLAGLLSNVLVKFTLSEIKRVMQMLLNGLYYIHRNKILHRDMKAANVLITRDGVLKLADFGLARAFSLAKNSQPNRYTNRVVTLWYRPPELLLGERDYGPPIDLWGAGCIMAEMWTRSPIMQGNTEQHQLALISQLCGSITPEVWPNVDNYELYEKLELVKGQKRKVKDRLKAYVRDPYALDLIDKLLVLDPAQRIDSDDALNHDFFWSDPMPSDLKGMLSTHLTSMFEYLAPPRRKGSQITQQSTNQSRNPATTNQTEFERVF

Compound: Cc1ccc2[nH]c(/C(C#N)=C/c3ccc(O)c(O)c3)nc2c1
- EC50 [1]: 2.17 µM (active)

Compound: COC(=O)C1CN(C#N)N(c2ccc(Cl)cc2)C12c1ccccc1-c1ccccc12 (stereo not given)
- AC50 [2]: < 260 nM (active)
- IC50 [3]: 5.76 µM (active)
- EC50 (Integrin alpha-4): 18.9 µM (active)

- AC50 (Caspase-6): 276 nM (active)
- IC50 [4]: 12.8 µM (active)
Compound: O=C(NN1C(=O)CSC1=S)C(=O)NN1C(=O)CSC1=S

- Ki [5]: 20 µM (active)
- Ki [6]: > 1.58 µM (inactive)
- Ki [7]: > 1.26 µM (inactive)
- Ki [8]: > 7.94 µM (inactive)
- Ki [9]: > 1.26 µM (inactive)
- Ki [10]: 7.94 µM (active)
- Ki [11]: > 7.94 µM (inactive)
- Ki [12]: > 1.58 µM (inactive)
- Ki [13]: 15.8 µM (active)
- Ki [14]: > 3.98 µM (inactive)
- Ki [15]: > 2.51 µM (inactive)
- Ki (Insulin receptor): > 5.01 µM (inactive)
- Ki [16]: > 1 µM (inactive)
- Ki [17]: 2.51 µM (active)
- Ki [18]: 5.01 µM (active)
- Ki [19]: 7.94 µM (active)
- Ki [20]: > 10 µM (inactive)
- Ki [21]: 6.31 µM (active)
Compound: Nc1noc2cccc(-c3cccc(O)c3)c12

Compound: O=C1NC(=S)S/C1=C\C=C\c1ccc([N+](=O)[O-])o1
- IC50 (Troponin, cardiac muscle): 40.2 µM (inactive)
